The experiment relates to 439559-082-T-J2-PDC spheroids viability. Kind of experiment: Anticancer human tumor 439559-082-T-J2-PDC patient-derived colon adenocarcinoma cell line growth inhibition [GQUAD]. Particulars: for viability, T/C: stronger effect = lower value. An excerpt: DNA G-quadruplex Stabilizer Agents in Combinations in Complex Spheroids
A high-throughput screen of multi-cell type tumor spheroids was designed to identify active combinations of DNA G-quadruplex stabilizer agents and targeted small molecules. Complex spheroids include a stromal component modeled by human endothelial cells (HUVEC) and fibroblasts modeled by human mesenchymal stem cells (MSCs). The concentration ranges selected for each drug and investigational agent were based upon clinically achievable concentrations if the clinical Cmax of the agent was known.
Compounds. The drugs and investigational agents: pidnarulex (CX-5461; NSC782164), APTO-253 (NSC789042), BRACO-19 (NSC847499), peposertib (NSC802822), ceralasertib (NSC780249), elimusertib (NSC800525), camonsertib (NSC841442), AZD-1390 (NSC803789), olaparib (NSC753686), talazoparib (NSC767125), ART-558 (NSC835418), sotorasib (NSC818433), MRTX-1133 (NSC836407), SN-38 (NSC673596), topotecan (NSC609699), etoposide (NSC141540), doxorubicin (NSC123127), gemcitabine (NSC613327), 5-fluorouracil (NSC19893), paclitaxel (NSC125973), vemurafenib (NSC761431), panobinostat (NSC761190), R-306465 (JNJ-16241199; NSC773264), adavosertib (NSC754352), TP-3654 (NSC805149), carboplatin (NSC241240), KSQ-4279 (NSC840948), and staurosporine (NSC755774) were obtained from the National Cancer Institute (NCI) Developmental Therapeutics Program Chemical Repository (34). The FDA-approved anticancer drug set is available from the NCI Developmental Therapeutics Program. […] The stock solutions were prepared in dimethyl sulfoxide (DMSO, Sigma-Aldrich, St. Louis, MO, cat. D2650) at 800-fold the tested concentration and stored at -70 degrees C prior to their use. All drugs and investigational agents were tested over a range starting from a high concentration at or near the clinical Cmax and decreasing in half-log increments. If the clinical Cmax for an agent had not been determined, the highest concentration tested was 10 microM.
2.3 Cell Culture. All cells were maintained in an incubator at 37 degrees C and 5% CO2 with 95% humidity. The PDC lines were cultured according to standard operating procedures established by the NCI PDMR. All PDCs were thawed and cultured in Matrigel-coated flasks prepared with a working solution of 1X Ham's F-12 nutrient mix, without supplementation (Invitrogen, cat. 11765054), 100 U/mL penicillin-streptomycin (Invitrogen, cat. 15140122), and 2.5% Matrigel (Corning Inc., cat. 354248) for the first three passages. The 857933-349-R-J2-PDC line was cultured in 6C/Colon 1B media, which includes advanced DMEM/F-12 (Thermo Fisher Scientific, cat. 12634028), 10 mM HEPES (Thermo Fisher Scientific, cat. 15630080), 1X GlutaMAX supplement (Thermo Fisher Scientific, cat. 35050061), 0.1 mg/mL primocin (InvivoGen, cat. ant-pm-2), 10% defined fetal bovine serum, heat inactivated (HyClone Laboratories Inc., cat. SH30070.03HI), 50% L-WRN conditioned media (ATCC, cat. CRL-3276), 1.25 mM N-Acetyl-L-cysteine (Sigma-Aldrich, cat. A9165), 10 mM nicotinamide (Sigma-Aldrich, cat. N0636), 1X B-27 supplement (Thermo Fisher Scientific, cat. 17504044), 1X N-2 supplement (Thermo Fisher Scientific, cat. 17502048), 10 microM Y-27632 dihydrochloride (Tocris Bioscience, cat. 1254), and 50 ng/mL human EGF recombinant protein (Thermo Fisher Scientific, cat. PHG0311). The 485176-168-R4-J1-PDC line was cultured in Panc media, which includes all 6C/Colon 1B media components plus 100 ng/mL human FGF-10 (Thermo Fisher Scientific, cat. 100-26), 500 nM SB-431542 (Selleckchem, cat. S1067), and gastrin (Tocris, cat. 3006).
[…]

“And” between values parts separate entries of the source, which are not always exact repeats. Identical values can stand only once.

viability, T/C and IC50 data for eleven compounds are collected here from PubChem BioAssay AID2060510 (Molecular Pharmacology Branch, DTP, NCI, 2025).
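Also: spheroids exposed to the agents for 7 days before readout.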
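For viability, T/C in this document: percent of luminescence signal in DMSO vehicle wells taken as 100% viability.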

Broadly, the viability, T/C is the ratio of treated to control. What is called IC50 is the point on the concentration scale where inhibition reaches its midpoint. As to `C#Cc1c(F)ccc2cc(O)cc(-c3ncc4c(N5CC6CCC(C5)N6)nc(OCC56CCCN5CC(F)C6)nc4c3F)c12` (stereo not drawn), the viability, T/C reads like this: (compound 0.0316 µM) 96.1% and 98.3% and 86.1%; (compound 0.1 µM) 86.3% and 94.2% and 72.7%; (compound 0.316 µM) 76.8% and 90.2% and 62.7%; (compound 1 µM) 75.4% and 78.3% and 59.6%; (compound 3.16 µM) 60.6% and 9.56% and 49.7%; (compound 10 µM) 49% and 15.8% and 45.7%. Also, the IC50 (curve of compound) is 9820 nM and 1640 nM and 3590 nM.
For the compound `C=CC(=O)N1CCN(c2nc(=O)n(-c3c(C)ccnc3C(C)C)c3nc(-c4c(O)cccc4F)c(F)cc23)C(C)C1` (stereo not drawn), the viability, T/C runs as follows: (compound 0.0316 µM) 101% (2×) and 96.5%; (compound 0.1 µM) 101% and 91.7% and 89.6%; (compound 0.316 µM) 94.3% and 91.1% and 108%; (compound 1 µM) 110% and 96.3% and 112%; (compound 3.16 µM) 99% and 108% and 107%; (compound 10 µM) 98.8% and 96.6% and 105%. Moreover, for the setting “curve of compound”, the IC50 was more than 10000 nM.
As for `CC(=O)O[C@H]1C(=O)[C@@]2(C)[C@H]([C@H](OC(=O)c3ccccc3)[C@]3(O)C[C@H](OC(=O)[C@H](O)[C@@H](NC(=O)c4ccccc4)c4ccccc4)C(C)=C1C3(C)C)[C@]1(OC(C)=O)CO[C@@H]1C[C@@H]2O`, the viability, T/C runs as follows: (compound 0.0316 µM) 97.3% and 78.7% and 84.1%; (compound 0.1 µM) 75.3% (2×) and 83.1%; (compound 0.316 µM) 55.6% and 69.5% and 90.7%. Besides, under “curve of compound”, the IC50 was 332 nM and 2180 nM and 2490 nM.
For the compound `CC(C)n1c(=O)n(C)c2cnc3cc(F)c(-c4ccc(OCCCN5CCCCC5)nc4)cc3c21`, the viability, T/C reads like this: (compound 0.0316 µM) 110% and 92.9% and 102%; (compound 0.1 µM) 103% and 115% and 91.5%; (compound 0.316 µM) 117% and 111% and 110%; (compound 1 µM) 107% and 114% and 98.3%; (compound 3.16 µM) 116% and 117% and 110%; (compound 10 µM) 95.4% and 101% and 102%. Where the note is “curve of compound”, the IC50 is more than 10000 nM.
For `CC1COCCN1c1cc(-c2ccnn2C)c2ccnc(-c3ccn[nH]3)c2n1` (stereo not drawn), the viability, T/C by setting is: (compound 0.0316 µM) 97.7% and 97.6% and 93.5%; (compound 0.1 µM) 80.6% and 68.1% and 73.8%; (compound 0.316 µM) 46.8% and 35.7% and 39.2%; (compound 1 µM) 34.3% and 35.7% and 31.6%; (compound 3.16 µM) 37.7% and 30.7% and 31.6%; (compound 10 µM) 33.5% and 28.8% and 34%. The IC50 (curve of compound) is 280 nM and 192 nM and 220 nM.
For the compound `CC1COCCN1c1cc(C2(O)CC3CCC(C2)O3)c2cnn(-c3ccn[nH]3)c2n1` (stereo not drawn), the viability, T/C is 88.9% and 93.8% and 110% (compound 0.0316 µM); 94.8% and 93.7% and 78.8% (compound 0.1 µM); 68.1% and 75.7% and 73.3% (compound 0.316 µM); 52.4% and 55.8% and 50.7% (compound 1 µM); 39% and 40.9% and 32.5% (compound 3.16 µM); 33.2% and 39.8% and 28.5% (compound 10 µM). In addition, the 50% inhibitory concentration (IC50) (curve of compound) is 1030 nM and 1520 nM.
In the case of `CC1COCCN1c1cc(C2(S(C)(=N)=O)CC2)nc(-c2ccnc3[nH]ccc23)n1` (stereo not drawn), the viability, T/C by setting is: (compound 0.0316 µM) 97.7% and 98.8% and 96.5%; (compound 0.1 µM) 111% and 89.2% and 102%; (compound 0.316 µM) 93.4% and 106% and 88.7%; (compound 1 µM) 101% and 86.2% and 94%; (compound 3.16 µM) 92.3% and 87.4% and 80.1%; (compound 10 µM) 68.4% and 57.7% and 60.7%. Besides, the IC50 (curve of compound) is more than 10000 nM.
As to `CC[C@@]1(O)C(=O)OCc2c1cc1n(c2=O)Cc2cc3c(CN(C)C)c(O)ccc3nc2-1`, the viability, T/C is, setting by setting: (compound 0.000999 µM) 95.3% and 92.3% and 106%; (compound 0.00316 µM) 105% and 96.2% and 94.6%; (compound 0.00999 µM) 96% and 97.9% and 95.6%; (compound 0.0316 µM) 84.6% and 98% and 89.7%; (compound 0.0999 µM) 88.7% and 87.6% and 101%; (compound 0.316 µM) 79% and 81.7% and 75.3%. In addition, the IC50 (curve of compound) is more than 316 nM.
Turning to `CCc1c2c(nc3ccc(O)cc13)-c1cc3c(c(=O)n1C2)COC(=O)[C@]3(O)CC`, the viability, T/C (compound 0.000999 µM) was 92.9% and 101% and 105%; the viability, T/C (compound 0.00316 µM) is 88.5% and 90.5% and 87.7%; the viability, T/C (compound 0.00999 µM) was 78.4% and 78.2% and 84.3%; the viability, T/C (compound 0.0316 µM) was 71.1% and 81.8% and 69.5%; the viability, T/C (compound 0.0999 µM) is 61.7% and 59.3% and 49.4%; the viability, T/C (compound 0.316 µM) was 47.6% and 44.7% and 36.1%. Further, the IC50 (curve of compound) is 272 nM and 229 nM and 115 nM.
As for `CN(C)c1ccc(Nc2c3ccc(NC(=O)CCN4CCCC4)cc3nc3cc(NC(=O)CCN4CCCC4)ccc23)cc1`, the viability, T/C (compound 0.0316 µM) was 103% [middle of 12 runs]; the viability, T/C (compound 0.1 µM) is 99.9% [middle of 12 runs]; the viability, T/C (compound 0.316 µM) was 101% [middle of 12 runs]; the viability, T/C (compound 3.16 µM) was 104% [middle of 12 runs]; the viability, T/C (compound 10 µM) was 101% [middle of 12 runs]. Besides, the IC50 (compound alone, run of 04/22/2024) was more than 10000 nM.
For the compound `COc1cc(C2c3cc4c(cc3C(OC3OC5COC(C)OC5C(O)C3O)C3COC(=O)C23)OCO4)cc(OC)c1O` (stereo not drawn), the viability, T/C runs as follows: (compound 0.0316 µM) 96.1% and 96% and 96.2%; (compound 0.1 µM) 93% and 81.9% and 90.7%; (compound 0.316 µM) 92.8% and 94.6% and 101%; (compound 1 µM) 98.3% and 89.7% and 95%; (compound 3.16 µM) 90.2% and 80.1% and 81.5%; (compound 10 µM) 62.3% and 61% and 68.8%. The IC50 (curve of compound) was more than 10000 nM.
